From ChEMBL document CHEMBL1201862, “PubChem BioAssay data set” (2004) come the findings set out here.

Experiment [1] in a line: Luminescence Cell-Based Dose Confirmation HTS to Identify Inhibitors of Platelet Dense Granule Release. [Related pubchem assays: 1663 (Primary HTS), 1678 (Summary of Project)]. The format is functional.
The nature of experiment [2]: HEp-2 cell cytotoxicity, dose response, cytotoxicity control for RSV inhibitor project, HTS (AID 2410). Format: functional. To be noted: human respiratory syncytial virus.
Experiment [3] has as its target Luciferin 4-monooxygenase (Photinus pyralis, UniProt P08659). Briefly: firefly luciferase enzyme inhibitors, dose response, biochemical, luminescence (AID 1891).
Experiment [4] concerns the target Induced myeloid leukemia cell differentiation protein Mcl-1 (Homo sapiens, UniProt Q07820). The format is functional.
The next experiment has as its target T1, Protein skinhead-1 (Caenorhabditis elegans, UniProt P34707).
T1 sequence (P34707 whole entry): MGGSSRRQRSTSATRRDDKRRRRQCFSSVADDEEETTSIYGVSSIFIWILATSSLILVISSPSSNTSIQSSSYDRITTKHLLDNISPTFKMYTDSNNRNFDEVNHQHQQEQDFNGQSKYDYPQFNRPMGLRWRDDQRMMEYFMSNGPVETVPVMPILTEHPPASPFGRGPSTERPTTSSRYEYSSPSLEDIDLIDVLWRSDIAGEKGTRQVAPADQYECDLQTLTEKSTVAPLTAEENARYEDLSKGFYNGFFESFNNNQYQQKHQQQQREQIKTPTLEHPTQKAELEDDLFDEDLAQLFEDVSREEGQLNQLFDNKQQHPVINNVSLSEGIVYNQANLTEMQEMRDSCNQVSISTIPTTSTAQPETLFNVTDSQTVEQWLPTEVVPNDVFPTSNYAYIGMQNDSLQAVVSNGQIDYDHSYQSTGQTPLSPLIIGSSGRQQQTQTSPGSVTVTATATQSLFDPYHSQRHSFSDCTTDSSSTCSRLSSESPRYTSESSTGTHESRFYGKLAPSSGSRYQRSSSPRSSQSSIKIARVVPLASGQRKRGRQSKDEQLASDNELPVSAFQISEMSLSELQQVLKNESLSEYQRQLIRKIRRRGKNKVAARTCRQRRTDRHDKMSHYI
The format is functional.

Experiment [5] addresses T2, Microphthalmia-associated transcription factor (Homo sapiens, UniProt O75030).
T2 sequence (O75030 whole entry): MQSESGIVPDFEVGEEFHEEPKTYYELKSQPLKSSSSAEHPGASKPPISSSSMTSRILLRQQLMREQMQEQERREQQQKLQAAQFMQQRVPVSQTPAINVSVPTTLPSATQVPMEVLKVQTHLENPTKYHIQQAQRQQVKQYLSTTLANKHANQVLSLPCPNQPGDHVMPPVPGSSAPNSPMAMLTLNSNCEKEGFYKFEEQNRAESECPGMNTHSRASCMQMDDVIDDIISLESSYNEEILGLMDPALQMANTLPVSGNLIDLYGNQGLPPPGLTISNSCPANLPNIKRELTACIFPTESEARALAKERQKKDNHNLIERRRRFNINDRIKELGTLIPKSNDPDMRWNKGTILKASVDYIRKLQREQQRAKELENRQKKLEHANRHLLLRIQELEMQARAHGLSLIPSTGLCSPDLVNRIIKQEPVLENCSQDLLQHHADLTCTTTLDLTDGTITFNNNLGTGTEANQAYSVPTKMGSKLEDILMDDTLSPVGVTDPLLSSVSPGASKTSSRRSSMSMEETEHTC
Briefly: TRPM1 promoter luciferase signal decrease, dose response, MITF inhibitor project, cell-based, SK-MEL-5, cherry-picked, set 3 (AID 493073).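 Further: SK-MEL-5 melanoma cells with luciferase driven by the MITF target TRPM1 promoter.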 Format: functional.

Experiment [6] has as its target T3, Rac GTPase-activating protein 1 (Homo sapiens, UniProt Q9H0H5).
T3 sequence (Q9H0H5 whole entry): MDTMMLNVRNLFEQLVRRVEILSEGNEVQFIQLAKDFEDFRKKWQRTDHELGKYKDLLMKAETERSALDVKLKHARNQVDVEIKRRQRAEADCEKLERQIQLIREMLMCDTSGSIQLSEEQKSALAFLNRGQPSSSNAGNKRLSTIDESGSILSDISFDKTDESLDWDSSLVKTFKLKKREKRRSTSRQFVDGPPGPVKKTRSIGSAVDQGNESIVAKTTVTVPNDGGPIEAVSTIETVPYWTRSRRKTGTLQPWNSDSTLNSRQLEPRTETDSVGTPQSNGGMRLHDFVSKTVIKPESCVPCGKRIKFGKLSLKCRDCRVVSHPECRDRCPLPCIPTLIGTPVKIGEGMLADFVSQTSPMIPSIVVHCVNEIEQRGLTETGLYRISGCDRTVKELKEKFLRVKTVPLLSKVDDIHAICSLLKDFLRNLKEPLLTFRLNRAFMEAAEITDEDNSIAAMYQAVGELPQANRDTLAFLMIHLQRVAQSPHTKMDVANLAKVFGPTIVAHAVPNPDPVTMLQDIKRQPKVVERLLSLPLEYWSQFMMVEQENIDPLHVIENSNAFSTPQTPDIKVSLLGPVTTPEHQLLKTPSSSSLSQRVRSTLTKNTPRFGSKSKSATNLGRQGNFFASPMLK
Nature of the experiment: MgcRacGAP GTPase-activating activity inhibitors, confirmation, biochemical, ADP Hunter fluorescence, primary and confirmatory (AID 624330). The format is functional.

For experiment [7], the target named is T4, Calpain-2 catalytic subunit (Sus scrofa, UniProt P43367).
T4 sequence (P43367 whole entry): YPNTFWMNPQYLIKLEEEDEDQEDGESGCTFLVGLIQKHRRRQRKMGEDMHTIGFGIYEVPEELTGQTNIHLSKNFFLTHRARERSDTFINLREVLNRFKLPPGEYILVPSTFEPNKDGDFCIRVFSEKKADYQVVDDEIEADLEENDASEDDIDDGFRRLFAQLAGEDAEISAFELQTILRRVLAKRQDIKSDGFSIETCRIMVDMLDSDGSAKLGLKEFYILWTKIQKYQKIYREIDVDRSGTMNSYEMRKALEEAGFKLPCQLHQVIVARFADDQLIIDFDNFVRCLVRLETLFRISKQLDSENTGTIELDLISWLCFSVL
Nature of the experiment: pig calpain II inhibitor potency, dose response, biochemical, fluorogenic peptide substrate (AID 1420). Format: functional.

The target of experiment [8] is T5, Heat shock factor protein 1 (Mus musculus, UniProt P38532).
T5 sequence (P38532 whole entry): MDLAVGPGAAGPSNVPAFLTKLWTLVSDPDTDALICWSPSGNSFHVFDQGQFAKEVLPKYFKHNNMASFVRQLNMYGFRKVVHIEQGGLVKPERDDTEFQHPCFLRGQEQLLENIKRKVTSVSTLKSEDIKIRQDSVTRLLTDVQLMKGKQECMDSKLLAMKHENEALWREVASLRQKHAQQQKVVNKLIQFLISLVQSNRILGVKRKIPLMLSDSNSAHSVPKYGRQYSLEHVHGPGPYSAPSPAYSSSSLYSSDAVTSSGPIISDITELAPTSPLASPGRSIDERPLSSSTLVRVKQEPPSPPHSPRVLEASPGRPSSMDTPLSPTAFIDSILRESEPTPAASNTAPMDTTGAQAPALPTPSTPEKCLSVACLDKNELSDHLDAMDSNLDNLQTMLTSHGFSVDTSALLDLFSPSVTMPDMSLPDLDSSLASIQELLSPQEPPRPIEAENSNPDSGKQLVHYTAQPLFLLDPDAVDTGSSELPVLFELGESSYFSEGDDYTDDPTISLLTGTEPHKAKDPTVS
Nature of the experiment: HSF1 potentiators in luciferase reporter cells, confirmation, cell-based, NIH3T3, luminescence, dose retest (AID 435004).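 Further: stress induced by proteasome inhibitor MG132 added 30 min after compound; luciferase reporter driven by HSF1 response element in NIH3T3 cells; actives raise luminescence as potentiators of the MG132 stress response.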 The format is functional. (In a reporter assay the amount or activity of a reporter protein is the signal.)

A short description of experiment [9]: inhibitors of intracellular T. cruzi replication, confirmation, NIH3T3 host cells, beta-gal luminescence (AID 2044).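 Further: intracellular parasites grown in NIH/3T3 mouse fibroblasts as host cells; luminescent beta-galactosidase reporter signal from transgenic T. cruzi replicating inside host cells; inhibitors lower the luminescence signal.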 Format: functional, cell-based.
The nature of experiment [10]: cytotoxicity toward NIH3T3 fibroblasts, dose response, counter-screen, cell-based, ATP luminescence, mouse fibroblasts (AID 2010).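 Further: cells exposed to compound for about 90 hours before reading.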 The format is functional.

Active and inactive are the calls of the source.

Luciferin 4-monooxygenase, sequence (P08659 whole entry): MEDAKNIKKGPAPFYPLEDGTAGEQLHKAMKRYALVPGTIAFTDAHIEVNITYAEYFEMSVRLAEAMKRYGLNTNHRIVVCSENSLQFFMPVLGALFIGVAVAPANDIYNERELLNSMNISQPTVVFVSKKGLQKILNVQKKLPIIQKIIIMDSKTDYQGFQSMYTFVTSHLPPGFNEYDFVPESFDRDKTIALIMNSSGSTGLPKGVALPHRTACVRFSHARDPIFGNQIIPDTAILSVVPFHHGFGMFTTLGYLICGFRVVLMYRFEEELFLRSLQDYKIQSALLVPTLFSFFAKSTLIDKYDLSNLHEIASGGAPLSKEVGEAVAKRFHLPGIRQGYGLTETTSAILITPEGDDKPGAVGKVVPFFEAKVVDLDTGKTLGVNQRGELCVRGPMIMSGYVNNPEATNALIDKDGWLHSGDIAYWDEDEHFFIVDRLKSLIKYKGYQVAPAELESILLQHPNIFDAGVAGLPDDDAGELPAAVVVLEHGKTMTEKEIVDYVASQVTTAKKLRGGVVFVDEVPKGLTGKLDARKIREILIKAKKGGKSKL
Induced myeloid leukemia cell differentiation protein Mcl-1, sequence (Q07820 whole entry): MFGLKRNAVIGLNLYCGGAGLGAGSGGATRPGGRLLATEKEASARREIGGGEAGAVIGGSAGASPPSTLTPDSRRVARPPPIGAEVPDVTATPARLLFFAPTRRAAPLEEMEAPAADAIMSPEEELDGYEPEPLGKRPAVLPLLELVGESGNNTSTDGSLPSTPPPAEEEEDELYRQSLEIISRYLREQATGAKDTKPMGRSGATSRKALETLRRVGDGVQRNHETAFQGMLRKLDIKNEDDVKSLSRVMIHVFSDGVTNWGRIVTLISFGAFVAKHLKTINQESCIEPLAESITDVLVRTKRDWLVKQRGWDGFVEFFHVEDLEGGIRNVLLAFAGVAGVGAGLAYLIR

Regarding `COC(=O)/C=C1\SC(N/N=C/c2ccc(Cl)cc2)=NC1=O`, the EC50 was > 112 µM (not active) in experiment [1] and 41.5 µM (active) in experiment [3]. In addition, in experiment [2], the half-maximal cytotoxic concentration (CC50) was 23.5 µM (active).

As to `O=C(CSc1nc2ccccc2c(=O)n1-c1ccccc1)N1CCCc2ccccc21`, the CC50 in experiment [2] was 39 µM (active).

As for `COc1ccc(-c2csc(Nc3ccccc3)n2)cc1`, the results for the half-inhibitory concentration (IC50) (in experiment [4]; at Protein skinhead-1) were 10.3 µM (not active) and > 100 µM (inactive), respectively.

In the case of `CCOC(=O)c1c(N)sc2c1CCSC2`, the IC50 at Protein skinhead-1 is > 100 µM (inactive).

For the compound `C#CCCc1ccccc1/C=[N+](/C)[O-]`, the half-maximal activity concentration (AC50) in experiment [5] was 9.4 µM (active).

Consider `CCCNC(=O)COC(=O)c1[nH]c(C)c(C(=O)OCC)c1C`, for which the IC50 at Protein skinhead-1 was > 100 µM (inactive).

Take `O=C(Nc1nc(-c2ccccc2)cs1)c1ccccc1F`: on Protein skinhead-1, the IC50 is > 100 µM (inactive).

Consider `C#Cc1cccc(-n2nnc(C(=O)OC)c2-c2ccccc2)c1`, for which the IC50 on Protein skinhead-1 was > 100 µM (inactive).

In the case of `COc1cc(/C=N/NP(=S)(c2ccccc2)c2ccccc2)ccc1O`, in experiment [2], the CC50 is 30.3 µM (active). The figures for the IC50 in experiment [6] and in [7] were 109 µM (active) and 14.2 µM (not active), respectively.

Consider `COc1cc2c(cc1OC)C(C)N(S(=O)(=O)c1cnc(Cl)c(Cl)c1)CC2` (configuration not stated), for which, in experiment [5], the half-maximal activity concentration (AC50) was 12.1 µM (active). In addition, the EC50 in experiment [8] is 29.3 µM (active).

Turning to `O=C(CCCl)Nc1nc2c(s1)CCc1ccccc1-2`, the CC50 in experiment [2] was 4.52 µM (active). For the same compound, the EC50 in experiment [8] is 22.2 µM (active).

As for `CCOc1ccc2nc(NC(=O)C3CCCN(S(=O)(=O)c4cccs4)C3)sc2c1` (configuration not stated), the CC50 in [2] was 24.3 µM (active). The results for the half-maximal effective concentration (EC50) in experiment [9] and in experiment [10] were 2.51 µM (active) and > 60 µM (not active), respectively.

Consider `COc1ccc(NC(=O)Nc2ccc(N3CCOCC3)c3nonc23)c(OC)c1`, for which the IC50 at Protein skinhead-1 is > 100 µM (inactive).

Turning to `O=C(CN1C(=O)CCS(=O)(=O)c2ccccc21)NCc1ccccc1`, the IC50 on Protein skinhead-1 was > 100 µM (inactive).

Consider `Cc1cccc(-n2ncc3c(NC(C)C)ncnc32)c1`, for which, in [2], the cytotoxic concentration (CC50) is 34.4 µM (active).

Consider `Brc1ccc(OCc2cn3ccccc3n2)cc1`, for which the half-inhibitory concentration (IC50) at Protein skinhead-1 is 41.9 µM (active). Further, the EC50 in [8] is > 260 µM (inactive).

For the compound `C(=C1c2ccccc2-c2ccccc21)c1ccncc1`, the IC50 at Protein skinhead-1 is > 100 µM (inactive).

The EC50 is the concentration giving half of the maximal effect. The CC50 is the concentration at which the toxic effect on the cells reaches its halfway point. What is called IC50 is the concentration that gives 50% inhibition. By AC50 is commonly meant the concentration giving half of the maximal activity seen.
